Measured values as given in US20240269204A1, “COMPOSITION FOR ALLEVIATING SKIN DAMAGE CAUSED BY HYPOXIA CONTAINING SACCHAROMYCES CEREVISIAE STRAIN” (AMOREPACIFIC CORPORATION, priority 2023, published 2024).

Tests used:
[1] = tested on: MMP1; test: MMP1 gene expression by qPCR in CoCl2-induced hypoxic keratinocytes; assay type: cell-based; settings: keratinocytes (HEKn) treated with 200 μM CoCl2, 2.5 µM EGCG, cultured for 18 hours
Experimental: (§1) First, keratinocytes (HEKn) (onza, Switzerland) were treated with 200 μM CoCl2 to induce a hypoxic environment. After that, the expression level of hypoxia-inducible factor 1-alpha (HIF1A) that was known to be expressed under hypoxia was compared with that before the treatment with CoCl2 (CTL in FIG. 1) to confirm that the expression level of HIF1A increased compared with that before the treatment with CoCl2 (FIG. 1), and thus skin (keratinocytes) damaged by hypoxia (hereinafter referred to as hypoxic keratinocytes) was prepared. Thereafter, in order to verify the effect of the strain isolated in Example 1 on the alleviation of skin damage due to hypoxia, the hypoxic keratinocytes were treated with the extract prepared in Example 2 at various concentrations and then cultured for 18 hours. […] Specifically, 10 μL of universal master mix (Taqman 2X Universal PCR mix, Applied Biosystems, Cat. No. 4304437) and 1 μL of TaqMan probe were added, 5 μL of CDNA was added to obtain a total volume of 20 μL, and PCR was performed using the Applied biosystem 7500 fast real time PCR system and the provided standard protocol. The expression of MMP1, an aging-related gene, and COX2, an inflammation-related gene, was examined through qPCR, and the results are illustrated in FIGS. 2 and 3. At this time, EGCG was used as Comparative Example. […]

[2] = tested on: COX2; test: COX2 gene expression by qPCR in CoCl2-induced hypoxic keratinocytes; assay type: cell-based; settings: keratinocytes (HEKn) treated with 200 μM CoCl2, EGCG at 2.5 ppm, cultured for 18 hours
Experimental: as §1

O=C(O[C@@H]1Cc2c(O)cc(O)cc2O[C@@H]1c1cc(O)c(O)c(O)c1)c1cc(O)c(O)c(O)c1 [EGCG]
inhibition of MMP1 overexpressed by hypoxia (expression level of MMP1, FIG. 2) [1]: cannot inhibit MMP1 overexpressed by hypoxia
inhibition of COX2 overexpressed by hypoxia (expression level of COX2, FIG. 3) [2]: cannot inhibit expression of COX2 overexpressed by hypoxia
